# Laboratory results published in patent US20130245081A1, “Compositions and Methods for Treating Amyotrophic Lateral Sclerosis” (priority 2009, published 2013).
# Several values for one entry are separate records, joined by “and”; a condition that tells them apart may be missing. Equal entries are not always repeated. Where two headings read alike, the source gives them in different places.
# System: patients with ALS
# [1] = 50 mg, through the end of the study
# [2] = 300 mg, No Riluzole Use, through Week 28
# [3] = 300 mg, Riluzole Use, through Week 28
# [4] = 300 mg, any post-baseline visit
# [5] = 300 mg, double-blind treatment period
# 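Note: adverse event data gathered at every clinic visit and phone contact, after first study drug dose, in a blinded trial, counts of affected subjects.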
structure (smiles),measurement,setting,value
"CCCN[C@@H]1CCc2nc(N)sc2C1 [dexpramipexole, (6R)-2-amino-4,5,6,7-tetrahydro-6-(propylamino)benzothiazole]",≧1 serious treatment-related TEAE,[1],1 (2%) N (%)
same,≧1 severe TEAE,[1],13 N (%) and 13 (27%) N (%)
same,≧1 treatment-related TEAE,[1],16 (33%) N (%)
same,subjects with increase from baseline in QTcF >30 msec,300 mg,5 subjects
same,AE: Anxiety,[2],1 (7%) N (%)
same,AE: Depression,[2],1 (7%) N (%)
same,AE: Dysarthria,[2],2 (13%) N (%)
same,AE: Dysphagia,[2],2 (13%) N (%)
same,AE: Fall,[2],4 (27%) N (%)
same,AE: Muscular weakness,[2],3 (20%) N (%)
same,AE: Nausea,[2],0 N (%)
same,AE: Oedema peripheral,[2],0 N (%)
same,AE: Pharyngolaryngeal pain,[2],1 (7%) N (%)
same,AE: Salivary hypersecretion,[2],2 (13%) N (%)
same,AE: Sinusitis,[2],0 N (%)
same,AE: Urinary tract infection,[2],1 (7%) N (%)
same,AE: Anxiety,[3],4 (14%) N (%)
same,AE: Depression,[3],4 (14%) N (%)
same,AE: Dysarthria,[3],3 (10%) N (%)
same,AE: Dysphagia,[3],2 (7%) N (%)
same,AE: Fall,[3],7 (24%) N (%)
same,AE: Headache,[3],2 N (%) and 2 (7%) N (%)
same,AE: Muscular weakness,[3],4 (14%) N (%)
same,AE: Oedema peripheral,[3],1 (3%) N (%)
same,AE: Pharyngolaryngeal pain,[3],2 (7%) N (%)
same,AE: Salivary hypersecretion,[3],3 (10%) N (%)
same,AE: Urinary tract infection,[3],3 (10%) N (%)
same,incidence of ECGs with QTcB increased >30 msec from baseline,[4],30%
same,subjects with QTcF interval >450 msec,[4],3 subjects
same,AEs related to ALS as assessed by the Investigator,[5],80%
same,hemoglobin value in 1 subject (potentially clinically significant),[5],7.8 g/dL
same,subjects with prolonged QTcB,[5],3 subjects
same,subjects with serum chemistry abnormalities of potential clinical significance,[5],4 subjects
same,neutrophil count in 1 subject with neutropenia,"300 mg, noted at baseline of the placebo washout period",1180 µL⁻¹
same,ALS-related TEAE: Affect liability,"300 mg, through Week 28",0 N (%)
same,ALS-related TEAE: Arthralgia,"300 mg, through Week 28",1 (2%) N (%)
same,ALS-related TEAE: Choking,"300 mg, through Week 28",0 N (%)
same,ALS-related TEAE: Constipation,"300 mg, through Week 28",4 (9%) N (%)
same,ALS-related TEAE: Contusion,"300 mg, through Week 28",1 (2%) N (%)
same,ALS-related TEAE: Dehydration,"300 mg, through Week 28",2 (5%) N (%)
same,ALS-related TEAE: Depression,"300 mg, through Week 28",1 (2%) N (%)
same,ALS-related TEAE: Disease progression,"300 mg, through Week 28",2 (5%) N (%)
same,ALS-related TEAE: Dysarthria,"300 mg, through Week 28",5 (11%) N (%)
same,ALS-related TEAE: Dysphagia,"300 mg, through Week 28",3 (7%) N (%)
same,ALS-related TEAE: Dysphasia,"300 mg, through Week 28",1 (2%) N (%)
same,ALS-related TEAE: Dyspnoea,"300 mg, through Week 28",5 (11%) N (%)
same,ALS-related TEAE: Dyspnoea exertional,"300 mg, through Week 28",2 (5%) N (%)
same,ALS-related TEAE: Fall,"300 mg, through Week 28",10 (23%) N (%)
same,ALS-related TEAE: Fatigue,"300 mg, through Week 28",2 (5%) N (%)
same,ALS-related TEAE: Gastrointestinal Disorders,"300 mg, through Week 28",11 (25%) N (%)
same,ALS-related TEAE: General Disorders and Administration Site Conditions,"300 mg, through Week 28",6 (14%) N (%)
same,ALS-related TEAE: Increased upper airway secretion,"300 mg, through Week 28",2 (5%) N (%)
same,"ALS-related TEAE: Injury, Poisoning and Procedural Complications","300 mg, through Week 28",10 (23%) N (%)
same,ALS-related TEAE: Investigations,"300 mg, through Week 28",5 (11%) N (%)
same,ALS-related TEAE: Metabolism and Nutrition Disorders,"300 mg, through Week 28",4 (9%) N (%)
same,ALS-related TEAE: Muscle contractions involuntary,"300 mg, through Week 28",2 (5%) N (%)
same,ALS-related TEAE: Muscle spasticity,"300 mg, through Week 28",1 (2%) N (%)
same,ALS-related TEAE: Muscle twitching,"300 mg, through Week 28",2 (5%) N (%)
same,ALS-related TEAE: Muscular weakness,"300 mg, through Week 28",7 (16%) N (%)
same,ALS-related TEAE: Musculoskeletal and Connective Tissue Disorders,"300 mg, through Week 28",14 (32%) N (%)
same,ALS-related TEAE: Musculoskeletal pain,"300 mg, through Week 28",3 (7%) N (%)
same,ALS-related TEAE: Myalgia,"300 mg, through Week 28",0 N (%)
same,ALS-related TEAE: Neck pain,"300 mg, through Week 28",1 (2%) N (%)
same,ALS-related TEAE: Nervous System Disorders,"300 mg, through Week 28",10 (23%) N (%)
same,ALS-related TEAE: Oedema peripheral,"300 mg, through Week 28",1 (2%) N (%)
same,ALS-related TEAE: Pain in extremity,"300 mg, through Week 28",0 N (%)
same,ALS-related TEAE: Psychiatric Disorders,"300 mg, through Week 28",1 (2%) N (%)
same,ALS-related TEAE: Respiratory failure,"300 mg, through Week 28",0 N (%)
same,"ALS-related TEAE: Respiratory, Thoracic and Mediastinal Disorders","300 mg, through Week 28",11 (25%) N (%)
same,ALS-related TEAE: Salivary hypersecretion,"300 mg, through Week 28",5 (11%) N (%)
same,ALS-related TEAE: Vital capacity decreased,"300 mg, through Week 28",1 (2%) N (%)
same,ALS-related TEAE: Weight decreased,"300 mg, through Week 28",2 (5%) N (%)
same,Number of TEAEs,"300 mg, through Week 28",303
same,Number of serious TEAEs,"300 mg, through Week 28",9
same,Number of serious treatment-related TEAE,"300 mg, through Week 28",1
same,Number of severe TEAEs,"300 mg, through Week 28",12
same,Number of treatment-related TEAEs,"300 mg, through Week 28",46
same,Subjects with a TEAE with action taken of study drug discontinued,"300 mg, through Week 28",0 N (%)
same,TEAE: Anxiety,"300 mg, through Week 28",5 (11%) N (%)
same,TEAE: Arthralgia,"300 mg, through Week 28",3 (7%) N (%)
same,TEAE: Cardiac Disorders,"300 mg, through Week 28",8 (18%) N (%)
same,TEAE: Constipation,"300 mg, through Week 28",11 (25%) N (%)
